Reference: ChEMBL document CHEMBL1201862, “PubChem BioAssay data set” (2004)
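Exposure lasted 48 hours, with cells grown in 96-well plates and compounds tested at five concentrations. Here, GI50 denotes the concentration required for 50% inhibition of growth.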 Calls of active or inactive are those of the source. Rule as the data show it: active = GI50 up to about 1.1 µM and inactive = higher.

Experiments:
Experiment in all cases: DTP human tumour cell line panel, 48 h
[1] = tested on: 786-0
[2] = tested on: A498
[3] = tested on: A549
[4] = tested on: CAKI-1
[5] = tested on: HCT-15
[6] = tested on: Hs-578T
[7] = tested on: KM12
[8] = tested on: MDA-MB-231
[9] = tested on: NCI-H522
[10] = tested on: SF-295
[11] = tested on: SF-539
[12] = tested on: SK-MEL-5
[13] = tested on: SK-OV-3
[14] = tested on: SNB-19
[15] = tested on: SW-620
[16] = tested on: T47D
[17] = tested on: U-251
[18] = tested on: UACC-257
[19] = tested on: UO-31
[20] = tested on: DMS-114

In the case of `CC1=C(O)C(=O)C[C@]2(C)[C@H]3CC=C4[C@@H]5CC(C)(C)CC[C@@H]5C(=O)[C@H](O)[C@@]4(C)[C@]3(C)CC[C@@H]12`, the GI50 [1] is reported as 19.1 µM (inactive), the GI50 [2] is reported as > 50 µM (inactive) and the GI50 [3] is reported as 24.8 µM (inactive). The GI50 [4] was > 50 µM (inactive), the GI50 [5] was over 50 µM and the GI50 [6] was 25.1 µM (inactive). For the same compound, the GI50 [7] was > 50 µM (inactive), the GI50 [8] was > 50 µM (inactive) and the GI50 [9] was 16.6 µM (inactive). For the same compound, the GI50 [10] was 37.8 µM (inactive), the GI50 [11] was 2.8 µM (inactive) and the GI50 [12] was 34.8 µM (inactive). The GI50 [13] was > 50 µM (inactive), the GI50 [14] was > 50 µM (inactive) and the GI50 [15] was > 50 µM (inactive). The GI50 [16] was > 50 µM (inactive), the GI50 [17] was 27.5 µM (inactive) and the GI50 [18] was > 50 µM (inactive). For the same compound, the GI50 [19] was > 50 µM (inactive).

For `N#Cc1ccc(Cc2ccccn2)cc1Cl`, the GI50 [1] was > 100 µM (inactive), the GI50 [3] was > 100 µM (inactive) and the GI50 [4] was > 100 µM (inactive). The GI50 [20] was > 100 µM (inactive), the GI50 [7] was > 100 µM (inactive) and the GI50 [9] was > 100 µM (inactive). The GI50 [10] was > 100 µM (inactive), the GI50 [11] was > 100 µM (inactive) and the GI50 [12] was > 100 µM (inactive). For the same compound, the GI50 [13] was > 100 µM (inactive), the GI50 [14] was > 100 µM (inactive) and the GI50 [15] was > 100 µM (inactive). The GI50 [17] was > 100 µM (inactive), the GI50 [18] was > 100 µM (inactive) and the GI50 [19] was > 100 µM (inactive).

In the case of `Cc1cc([N+](=O)[O-])c(C)c2c1[nH]c1ccc(O)cc12`, the GI50 [1] is reported as 39.4 µM (inactive), the GI50 [3] is reported as > 100 µM (inactive) and the GI50 [4] is reported as > 100 µM (inactive). The GI50 [20] was 66.4 µM (inactive), the GI50 [5] was 50 µM and the GI50 [7] was > 100 µM (inactive). For the same compound, the GI50 [9] was > 10 µM (inactive), the GI50 [10] was > 100 µM (inactive) and the GI50 [11] was > 100 µM (inactive). The GI50 [12] was > 100 µM (inactive), the GI50 [14] was > 100 µM (inactive) and the GI50 [15] was 63.1 µM (inactive). For the same compound, the GI50 [18] was > 100 µM (inactive) and the GI50 [19] was > 100 µM (inactive).

`COc1ccc2[nH]cc(CCNC(=O)[C@](O)(Cc3cn(C)c4ccccc34)[C@@]3(O)OCC(O)C3O)c2c1` (stereo not given in full) was tested, and the GI50 [1] was > 100 µM (inactive), the GI50 [3] was > 100 µM (inactive) and the GI50 [4] was > 100 µM (inactive). The GI50 [20] was 35.6 µM (inactive), the GI50 [5] was over 100 µM and the GI50 [7] was > 100 µM (inactive). For the same compound, the GI50 [9] was > 100 µM (inactive), the GI50 [10] was > 100 µM (inactive) and the GI50 [11] was 40.4 µM (inactive). The GI50 [12] was > 100 µM (inactive), the GI50 [13] was > 100 µM (inactive) and the GI50 [14] was > 100 µM (inactive). For the same compound, the GI50 [15] was > 100 µM (inactive), the GI50 [17] was > 100 µM (inactive) and the GI50 [18] was > 100 µM (inactive).

With `COc1ccc(C(=O)C(c2ccc(OCc3ccccc3)cc2)c2ccc(OCc3ccccc3)cc2)cc1` the GI50 [1] was > 100 µM (inactive), the GI50 [3] was > 100 µM (inactive) and the GI50 [4] was > 100 µM (inactive). For the same compound, the GI50 [20] was > 100 µM (inactive), the GI50 [5] was over 100 µM and the GI50 [7] was > 100 µM (inactive). The GI50 [9] was > 100 µM (inactive), the GI50 [10] was > 100 µM (inactive) and the GI50 [11] was > 100 µM (inactive). The GI50 [12] was > 100 µM (inactive), the GI50 [13] was > 100 µM (inactive) and the GI50 [14] was > 100 µM (inactive). For the same compound, the GI50 [15] was > 100 µM (inactive), the GI50 [17] was > 100 µM (inactive) and the GI50 [19] was > 100 µM (inactive).

`Cc1ccc(OCC2OC(n3cnc4c(Cl)nc(N)nc43)CC2Oc2ccc(C)cc2)cc1` (stereo not given) was tested, and the GI50 [1] was 55.5 µM (inactive), the GI50 [2] was > 75 µM (inactive) and the GI50 [3] was 6.73 µM (inactive). The GI50 [4] was 1.76 µM (inactive), the GI50 [5] was 31 µM and the GI50 [6] was 39.4 µM (inactive). The GI50 [7] was > 51.8 µM (inactive), the GI50 [8] was 22.4 µM (inactive) and the GI50 [9] was 3.61 µM (inactive). For the same compound, the GI50 [10] was 15.2 µM (inactive), the GI50 [11] was > 55.7 µM (inactive) and the GI50 [12] was 30.9 µM (inactive). The GI50 [13] was > 69 µM (inactive), the GI50 [14] was 38 µM (inactive) and the GI50 [15] was > 55.3 µM (inactive). For the same compound, the GI50 [16] was 20.3 µM (inactive), the GI50 [17] was > 55.6 µM (inactive) and the GI50 [18] was 63.7 µM (inactive). The GI50 [19] was 4.58 µM (inactive).

With `CC(C)NC(=O)OCc1c(COC(=O)NC(C)C)c(-c2ccc[n+](COC(=O)C3CCCCC3)c2)n2c1CCC2` the GI50 [1] was 28.1 µM (inactive), the GI50 [2] was 29.2 µM (inactive) and the GI50 [3] was 82 µM (inactive). The GI50 [4] was 20.7 µM (inactive), the GI50 [5] was 85.5 µM and the GI50 [6] was > 100 µM (inactive). For the same compound, the GI50 [7] was > 100 µM (inactive), the GI50 [8] was 40.5 µM (inactive) and the GI50 [9] was 25.1 µM (inactive). For the same compound, the GI50 [10] was 47.8 µM (inactive), the GI50 [11] was 35.8 µM (inactive) and the GI50 [12] was 70.8 µM (inactive). The GI50 [13] was 39.1 µM (inactive), the GI50 [14] was > 100 µM (inactive) and the GI50 [15] was 57.4 µM (inactive). The GI50 [16] was 57.8 µM (inactive), the GI50 [17] was 55.6 µM (inactive) and the GI50 [18] was > 100 µM (inactive). The GI50 [19] was 40.6 µM (inactive).

With `Nc1ccc2nc(Nc3ccc(F)cc3)cnc2c1` the GI50 [1] was > 100 µM (inactive), the GI50 [3] was > 100 µM (inactive) and the GI50 [4] was > 100 µM (inactive). The GI50 [20] was 34.4 µM (inactive), the GI50 [5] was over 100 µM and the GI50 [7] was > 100 µM (inactive). The GI50 [9] was 44.4 µM (inactive), the GI50 [10] was > 100 µM (inactive) and the GI50 [11] was > 100 µM (inactive). The GI50 [12] was > 100 µM (inactive), the GI50 [14] was > 100 µM (inactive) and the GI50 [15] was > 100 µM (inactive). The GI50 [18] was > 100 µM (inactive) and the GI50 [19] was 47.2 µM (inactive).
